Where “and” joins values, the source holds several entries; their conditions need not be identical. Equal values may be shown once. Read-outs that look alike come from different tables or passages of the source.
Legend:
[1] = test system: tumor cell lines shown in Table 42; assay: Example 11: combined use with antimetabolite, cell growth inhibition test (IC50 ratio, CI); type: cell-based
[2] = test system: tumor cell lines shown in Table 26; assay: Example 3: combined use with serine-threonine kinase inhibitor, cell growth inhibition test (IC50 ratio, CI); details: for Comprehensive Evaluation: combined use with Reference Example Compound 55
[3] = test system: human acute T lymphoblastic leukemia CCRF-CEM cell lines; assay: Cell growth inhibition 1 (CellTiter-Glo); type: cell-based; details: culture with test compound 72 hours
[4] = A431, IC50 of Reference Example Compound 55 : IC50 of other compound = 1:value
[5] = A431, combined use with Reference Example Compound 55
[6] = A549, IC50 of Reference Example Compound 55 : IC50 of other compound = 1:value
[7] = TMD-8, IC50 of Reference Example Compound 55 : IC50 of other compound = 1:value

Nc1ccn([C@@H]2O[C@H](CO)[C@@H](O)C2(F)F)c(=O)n1 [Gemcitabine, gemcitabine]
IC50 Ratio [1, 4]: 0.01 | CI ([1]; A431, Reference Example Compound 55:other compound 1:0.007, at ED50): 0.70 | CI ([1]; A431, Reference Example Compound 55:other compound 1:0.02, at ED50): 0.49 | Comprehensive Evaluation [1, 5]: Synergism (0.3-0.7)

CO[C@H]1C[C@@H]2CC[C@@H](C)[C@@](O)(O2)C(=O)C(=O)N2CCCC[C@H]2C(=O)O[C@H]([C@H](C)C[C@@H]2CC[C@@H](O)[C@H](OC)C2)CC(=O)[C@H](C)/C=C(\C)[C@@H](O)[C@@H](OC)C(=O)[C@H](C)C[C@H](C)/C=C/C=C/C=C/1C [Rapamycin, rapamycin]
IC50 Ratio [2, 6]: 0.1 | Comprehensive Evaluation ([2]; A549): Synergism (0.3-0.7)

O=c1[nH]cc(F)c(=O)[nH]1 [Fluorouracil, fluorouracil]
IC50 Ratio [1, 4]: 0.8 | CI ([1]; A431, Reference Example Compound 55:other compound 1:0.56, at ED50): 0.44 | CI ([1]; A431, Reference Example Compound 55:other compound 1:1.67, at ED50): 0.20 | Comprehensive Evaluation [1, 5]: Synergism (0.3-0.7)

Sc1ncnc2nc[nH]c12 [6-Mercaptopurine, 6-mercaptopurine]
IC50 Ratio ([1]; MM.1S, IC50 of Reference Example Compound 55 : IC50 of other compound = 1:value): 169 | CI ([1]; MM.1S, Reference Example Compound 55:other compound 1:100, at ED50): 0.61 | CI ([1]; MM.1S, Reference Example Compound 55:other compound 1:300, at ED50): 0.80 | Comprehensive Evaluation ([1]; MM.1S, combined use with Reference Example Compound 55): Moderate

O=c1[nH]c(=O)n([C@H]2C[C@H](O)[C@@H](CO)O2)cc1C(F)(F)F [Trifluridine, trifluridine]
IC50 Ratio [1, 4]: 0.5 | CI ([1]; A431, Reference Example Compound 55:other compound 1:0.33, at ED50): 1.06 | CI ([1]; A431, Reference Example Compound 55:other compound 1:1, at ED50): 0.74 | Comprehensive Evaluation [1, 5]: Additive (0.9-1.10)

NC1(c2ccc(-c3nc4ccn5c(=O)[nH]nc5c4cc3-c3ccccc3)cc2)CCC1 [MK2206]
IC50 Ratio [2, 6]: 5 | CI ([2]; A549, Reference Example Compound 55:other compound 1:3, at ED50): 0.31 | CI ([2]; A549, Reference Example Compound 55:other compound 1:9, at ED50): 0.35 | Comprehensive Evaluation ([2]; A549): Synergism (0.3-0.7)

C[C@H](Nc1ncnc2nc[nH]c12)c1cc2cccc(Cl)c2c(=O)n1-c1ccccc1 [Duvelisib, duvelisib]
IC50 Ratio [2, 7]: 2 | CI ([2]; TMD-8, Reference Example Compound 55:other compound 1:1.2, at ED50): 0.42 | CI ([2]; TMD-8, Reference Example Compound 55:other compound 1:3.7, at ED50): 0.43 | Comprehensive Evaluation ([2]; TMD-8): Synergism (0.3-0.7)

Nc1ncnc2c1c(C#Cc1cccc3c1S(=O)(=O)CCC3)cn2[C@@H]1C[C@H](CNS(N)(=O)=O)[C@@H](O)[C@H]1O [Reference Example 123, 4-Amino-7-[(1R,2S,3R,4R)-2,3-dihydroxy-4-[(sulfamoylamino)methyl]cyclopentyl]-5-[2-(1,1-dioxo-3,4-dihydro-2H-thiochromen-8-yl)ethynyl]pyrrolo[2,3-d]pyrimidine]
IC50 [3]: 97 nM

Nc1ncnc2c1c(C#Cc1c(F)cccc1OCC1CC1)cn2[C@@H]1O[C@H](CNS(N)(=O)=O)[C@@H](O)[C@H]1O [Reference Example 86, 4-Amino-5-[2-[2-(cyclopropylmethoxy)-6-fluoro-phenyl]ethynyl]-7-[(2R,3R,4S,5R)-3,4-dihydroxy-5-[(sulfamoylamino)methyl]tetrahydrofuran-2-yl]pyrrolo[2,3-d]pyrimidine]
IC50 [3]: 5.5 nM

CCCOc1cccc(F)c1C#Cc1cn([C@@H]2O[C@H](CNS(N)(=O)=O)[C@@H](O)[C@H]2O)c2ncnc(N)c12 [Reference Example 60, 4-Amino-7-[(2R,3R,4S,5R)-3,4-dihydroxy-5-[(sulfamoylamino)methyl]tetrahydrofuran-2-yl]-5-[2-(2-fluoro-6-propoxy-phenyl)ethynyl]pyrrolo[2,3-d]pyrimidine]
IC50 [3]: 5.1 nM

Nc1ncnc2c1c(C#Cc1c(F)cc(N3CC[C@@H](O)C3)cc1F)cn2[C@@H]1C[C@H](CNS(N)(=O)=O)[C@@H](O)[C@H]1O [Reference Example 120, 4-Amino-5-[2-[2,6-difluoro-4-[(3R)-3-hydroxypyrrolidin-1-yl]phenyl]ethynyl]-7-[(1R,2S,3R,4R)-2,3-dihydroxy-4-[(sulfamoylamino)methyl]cyclopentyl]pyrrolo[2,3-d]pyrimidine]
IC50 [3]: 35 nM

Nc1ncnc2c1c(C#CCc1ccccc1F)cn2[C@@H]1O[C@H](CNS(N)(=O)=O)[C@@H](O)[C@H]1O [Reference Example 36, 4-Amino-7-[(2R,3R,4S,5R)-3,4-dihydroxy-5-[(sulfamoylamino)methyl]tetrahydrofuran-2-yl]-5-[3-(2-fluorophenyl)prop-1-ynyl]pyrrolo[2,3-d]pyrimidine]
IC50 [3]: 250 nM

CC[C@H](Nc1ncnc2[nH]cnc12)c1nc2cccc(F)c2c(=O)n1-c1ccccc1 [Idelalisib, idelalisib]
IC50 Ratio [2, 7]: 23 | CI ([2]; TMD-8, Reference Example Compound 55:other compound 1:11, at ED50): 0.57 | CI ([2]; TMD-8, Reference Example Compound 55:other compound 1:33, at ED50): 0.64 | Comprehensive Evaluation ([2]; TMD-8): Synergism (0.3-0.7)

Nc1ncnc2c1c(C#Cc1c(F)cc(N3CCSCC3)cc1F)cn2[C@@H]1O[C@H](CNS(N)(=O)=O)[C@@H](O)[C@H]1O [Reference Example 37, 4-[4-[2-[4-Amino-7-[(2R,3R,4S,5R)-3,4-dihydroxy-5-[(sulfamoylamino)methyl]tetrahydrofuran-2-yl]pyrrolo[2,3-d]pyrimidin-5-yl]ethynyl]-3,5-difluoro-phenyl]thiomorpholine]
IC50 [3]: 6 nM

Nc1ncnc2c1c(C#Cc1cccc3c1S(=O)(=O)CCC3)cn2[C@@H]1O[C@H](CNS(N)(=O)=O)[C@@H](O)[C@H]1O [Reference Example 83, 4-Amino-7-[(2R,3R,4S,5R)-3,4-dihydroxy-5-[(sulfamoylamino)methyl]tetrahydrofuran-2-yl]-5-[2-(1,1-dioxo-3,4-dihydro-2H-thiochromen-8-yl)ethynyl]pyrrolo[2,3-d]pyrimidine]
IC50 [3]: 56 nM

CC[C@@H]1C(=O)N(C)c2cnc(Nc3ccc(C(=O)N[C@H]4CC[C@H](N5CCN(CC6CC6)CC5)CC4)cc3OC)nc2N1C(C)C [Volasertib, volasertib]
IC50 Ratio ([2]; HL-60, IC50 of Reference Example Compound 55 : IC50 of other compound = 1:value): 14 | CI ([2]; HL-60, Reference Example Compound 55:other compound 1:11, at ED50): 0.95 | CI ([2]; HL-60, Reference Example Compound 55:other compound 1:33, at ED50): 0.82 | Comprehensive Evaluation ([2]; HL-60): Additive (0.9-1.10)

CSc1cccc(F)c1C#Cc1cn([C@@H]2C[C@H](CNS(N)(=O)=O)[C@@H](O)[C@H]2O)c2ncnc(N)c12 [Reference Example 98, 4-Amino-7-[(1R,2S,3R,4R)-2,3-dihydroxy-4-[(sulfamoylamino)methyl]cyclopentyl]-5-[2-(2-fluoro-6-methylsulfanyl-phenyl)ethynyl]pyrrolo[2,3-d]pyrimidine]
IC50 [3]: 7.3 nM

Nc1ncnc2c1c(C#Cc1c(F)cc(N3CCC3)cc1F)cn2[C@@H]1O[C@H](CNS(N)(=O)=O)[C@@H](O)[C@H]1O [Reference Example 43, 4-amino-5-[2-[4-(azetidin-1-yl)-2,6-difluoro-phenyl]ethynyl]-7-[(2R,3R,4S,5R)-3,4-dihydroxy-5-[(sulfamoylamino)methyl]tetrahydrofuran-2-yl]pyrrolo[2,3-d]pyrimidine]
IC50 [3]: 2.7 nM

CO[C@H]1C[C@@H]2CC[C@@H](C)[C@@](O)(O2)C(=O)C(=O)N2CCCC[C@H]2C(=O)O[C@H]([C@H](C)C[C@@H]2CC[C@@H](OCCO)[C@H](OC)C2)CC(=O)[C@H](C)/C=C(\C)[C@@H](O)[C@@H](OC)C(=O)[C@H](C)C[C@H](C)/C=C/C=C/C=C/1C [Everolimus, everolimus]
IC50 Ratio ([2]; VMRC-RCW, IC50 of Reference Example Compound 55 : IC50 of other compound = 1:value): 6 | Comprehensive Evaluation ([2]; VMRC-RCW): Synergism (0.3-0.7)

Nc1nc2[nH]cc(CCc3ccc(C(=O)N[C@@H](CCC(=O)O)C(=O)O)cc3)c2c(=O)[nH]1 [Pemetrexed, pemetrexed]
CI [1]: 0.73 and 0.55 | Comprehensive Evaluation [1]: Moderate | IC50 Ratio [1]: 34

COc1cncc(F)c1C#Cc1cn([C@@H]2O[C@H](CNS(N)(=O)=O)[C@@H](O)[C@H]2O)c2ncnc(N)c12 [Reference Example 71, 4-Amino-7-[(2R,3R,4S,5R)-3,4-dihydroxy-5-[(sulfamoylamino)methyl]tetrahydrofuran-2-yl]-5-[2-(3-fluoro-5-methoxy-4-pyridyl)ethynyl]pyrrolo[2,3-d]pyrimidine]
IC50 [3]: 45 nM

AZD5363
CI [2]: 0.33 and 0.38 | IC50 Ratio [2]: 67

Nc1ccn([C@@H]2O[C@H](CO)[C@@H](O)[C@@H]2O)c(=O)n1 [Cytarabine, cytarabine]
CI [1]: 0.52 and 0.66 | IC50 Ratio [1]: 48 | Comprehensive Evaluation ([1]; HCT116, combined use with Reference Example Compound 55): Synergism (0.3-0.7)

Nc1ncnc2c1c(C#Cc1c(F)cccc1Cl)cn2[C@@H]1O[C@H](CNS(N)(=O)=O)[C@@H](O)[C@H]1O [Reference Example 73, 4-Amino-5-[2-(2-chloro-6-fluoro-phenyl)ethynyl]-7-[(2R,3R,4S,5R)-3,4-dihydroxy-5-[(sulfamoylamino)methyl]tetrahydrofuran-2-yl]pyrrolo[2,3-d]pyrimidine]
IC50 [3]: 71 nM

From US20190010158A1, “ANTITUMOR EFFECT POTENTIATOR COMPRISING PYRROLOPYRIMIDINE COMPOUND” (TAIHO PHARMACEUTICAL CO., LTD, priority 2015, published 2019)
